The values below come from article PMC8286840, “Identifying SARS-CoV-2 antiviral compounds by screening for small molecule inhibitors of Nsp3 papain-like protease” (Biochemical Journal, 2021).

For test [1], the target named is T1, SARS-CoV-2 PLpro (nsp3 1564–1878) (Severe acute respiratory syndrome coronavirus 2, UniProt P0DTD1). In words: biochemical. More on the design: FRET-quenched peptide (Pro3) cleavage by PLpro, 10 min pre-incubation, slope over 20 min, normalised to no-compound control. Particulars: read-out: % of control remaining.
The target in test [2] is T1, SARS-CoV-2 PLpro (nsp3 1564–1878). In words: biochemical. The settings on record: read-out: % of control remaining. Details: FRET-quenched peptide (Pro3) cleavage by PLpro, 10 min pre-incubation, slope over 20 min, normalised to no-compound control. The source holds these as a separate data set.

Where a name gives a salt, the structure may show the parent alone. Read-outs that look alike come from different tables or passages of the source. Where a SMILES comes first, the peptide text is derived from it.

Turning to `CC[C@H]1[C@@H](O)[C@@H]2[C@H](CC[C@]3(C)[C@@H]([C@H](C)CCC(=O)O)CC[C@@H]23)[C@@]2(C)CC[C@@H](O)C[C@@H]12` [Obeticholic Acid], the remaining activity at 3.75 µM in test [1] (Well no.=8720, high concentration screen) stood at 93%. Besides, the remaining activity at 1.25 µM in test [2] (Well no.=8720, low concentration screen) was 90.8%.
In the case of `C[C@@H]1Cc2c(Cl)cc(C(=O)N[C@@H](Cc3ccccc3)C(=O)O)c(O)c2C(=O)O1` [Ochratoxin A], the remaining activity at 3.75 µM in test [1] was determined as 92.8%. In test [2], the remaining activity at 1.25 µM was determined as 92.5%.
Turning to `CCCCCCCCCCCCCCCCCC(=O)O` [Octadecanoic acid], in test [1] (Well no.=4314, high concentration screen), the remaining activity at 3.75 µM was 96.8%. Further, the remaining activity at 1.25 µM in test [2] (Well no.=4314, low concentration screen) turned out to be 101%.
Regarding `O=C(O)CCCCCCC(=O)O` [Octanedioic acid], in test [1] (Well no.=6931, high concentration screen), the remaining activity at 3.75 µM is 103%. The remaining activity at 1.25 µM in test [2] (Well no.=6931, low concentration screen) turned out to be 108%.
In the case of `CCCCCCCC(=O)O` [Octanoic acid], the remaining activity at 3.75 µM in test [1] (Well no.=6591, high concentration screen) is 110%. For the same molecule, the remaining activity at 1.25 µM in test [2] (Well no.=6591, low concentration screen) came out at 104%.
For `NCC(O)c1ccc(O)cc1` (stereo not shown) [Octopamine (hydrochloride)], the remaining activity at 3.75 µM in test [1] (Well no.=6713, high concentration screen) was 98.6%. In test [2] (Well no.=6713, low concentration screen), the remaining activity at 1.25 µM was 98.8%.
As for `C[C@@H](O)[C@@H]1NC(=O)[C@H](CCCCN)NC(=O)[C@@H](Cc2c[nH]c3ccccc23)NC(=O)[C@H](Cc2ccccc2)NC(=O)[C@@H](NC(=O)[C@H](N)Cc2ccccc2)CSSC[C@@H](C(=O)N[C@H](CO)[C@@H](C)O)NC1=O` [Octreotide (acetate)], the remaining activity at 3.75 µM in test [1] (Well no.=6556, high concentration screen) stood at 94.1%; in test [1] (Well no.=7396, high concentration screen) it was 93.2%. The remaining activity at 1.25 µM amounted to 92.6% in test [2] (Well no.=6556, low concentration screen) and 97.5% in test [2] (Well no.=7396, low concentration screen).
In the case of `C[C@@H](O)[C@@H]1NC(=O)[C@H](CCCCN)NC(=O)[C@@H](Cc2c[nH]c3ccccc23)NC(=O)[C@H](Cc2ccccc2)NC(=O)[C@@H](NC(=O)[C@H](N)Cc2ccccc2)CSSC[C@@H](C(=O)N[C@H](CO)[C@@H](C)O)NC1=O` [Octreotide], the remaining activity at 3.75 µM in test [1] (Well no.=1977, high concentration screen) came out at 107%. For the same molecule, in test [2] (Well no.=1977, low concentration screen), the remaining activity at 1.25 µM is 103%.
With `CC(C)(F)C[C@H](N[C@@H](c1ccc(-c2ccc(S(C)(=O)=O)cc2)cc1)C(F)(F)F)C(=O)NC1(C#N)CC1` [Odanacatib (MK-0822)], the remaining activity at 3.75 µM in test [1] (Well no.=8836, high concentration screen) worked out at 92.8%. For the same molecule, the remaining activity at 1.25 µM in test [2] (Well no.=8836, low concentration screen) was found to be 88.7%.
`CC1COc2c(N3CCN(C)CC3)c(F)cc3c(=O)c(C(=O)O)cn1c23` (stereo not shown) [Ofloxacin]: the remaining activity at 3.75 µM turned out to be 105% in test [1] (Well no.=898, high concentration screen) and 104% in test [1] (Well no.=2047, high concentration screen). For the same molecule, the remaining activity at 1.25 µM in test [2] (Well no.=898, low concentration screen) came out at 106%; in test [2] (Well no.=2047, low concentration screen), 104%.
`N[C@@H](CCC(=O)O)C(=O)N[C@@H](Cc1c[nH]c2ccccc12)C(=O)O` [Oglufanide] (H-Glu-Trp-OH): the remaining activity at 3.75 µM in test [1] (Well no.=8604, high concentration screen) was 101%. In addition, in test [2] (Well no.=8604, low concentration screen), the remaining activity at 1.25 µM turned out to be 107%.
Turning to `Cc1cc2c(s1)Nc1ccccc1N=C2N1CCN(C)CC1` [Olanzapine], the remaining activity at 3.75 µM in test [1] (Well no.=1828, high concentration screen) is 95.2%; in test [1] (Well no.=8193, high concentration screen), 111%. Also, the remaining activity at 1.25 µM was 93.3% in test [2] (Well no.=1828, low concentration screen) and 106% in test [2] (Well no.=8193, low concentration screen).
For `CC1(C)CC[C@]2(C(=O)O)CC[C@]3(C)C(=CC[C@@H]4[C@@]5(C)CC[C@H](O)C(C)(C)[C@@H]5CC[C@]43C)[C@@H]2C1` [Oleanolic acid], the remaining activity at 3.75 µM in test [1] (Well no.=3448, high concentration screen) stood at 91.6%; in test [1] (Well no.=6443, high concentration screen) it was 96.8%. The remaining activity at 1.25 µM was 96.1% in test [2] (Well no.=3448, low concentration screen) and 95.4% in test [2] (Well no.=6443, low concentration screen).
Turning to `CCCCCCCC/C=C\CCCCCCCC(=O)O` [Oleic Acid], the remaining activity at 3.75 µM in test [1] (Well no.=848, high concentration screen) turned out to be 101%; in test [1] (Well no.=7347, high concentration screen), 104%. The remaining activity at 1.25 µM in test [2] (Well no.=848, low concentration screen) is 102%.
Regarding `CCCCCCCC/C=C\CCCCCCCC(=O)NCCc1ccc(O)c(O)c1` [Oleoyl dopamine], the remaining activity at 3.75 µM in test [1] (Well no.=4539, high concentration screen) is 100%. In addition, the remaining activity at 1.25 µM in test [2] (Well no.=4539, low concentration screen) was found to be 95.5%.
For the molecule `CC[C@@H]1/C=C/C=C/C[C@H](C)[C@H](O)[C@](C)(O)C(=O)[C@H](C)[C@@H](O)[C@H](C)C(=O)[C@H](C)[C@@H](O)[C@H](C)/C=C/C(=O)O[C@H]2[C@@H](C)[C@@H](CC1)O[C@@]1(CC[C@@H](C)[C@@H](C[C@H](C)O)O1)[C@@H]2C` [Oligomycin A], the remaining activity at 3.75 µM in test [1] (Well no.=850, high concentration screen) is 103%; in test [1] (Well no.=3423, high concentration screen), 96.5%. Further, the remaining activity at 1.25 µM in test [2] (Well no.=850, low concentration screen) amounted to 105%; in test [2] (Well no.=3423, low concentration screen), 98.1%.
In the case of `CCCc1nc(C(C)(C)O)c(C(=O)OCc2oc(=O)oc2C)n1Cc1ccc(-c2ccccc2-c2nnn[nH]2)cc1` [Olmesartan (medoxomil)], the remaining activity at 3.75 µM in test [1] (Well no.=7579, high concentration screen) was 92.2%. In addition, in test [2] (Well no.=7579, low concentration screen), the remaining activity at 1.25 µM turned out to be 98.2%.
As for `CCCc1nc(C(C)(C)O)c(C(=O)O)n1Cc1ccc(-c2ccccc2-c2nnn[nH]2)cc1` [Olmesartan], the remaining activity at 3.75 µM was determined as 95.4% in test [1] (Well no.=1794, high concentration screen) and 99% in test [1] (Well no.=7669, high concentration screen). Further, the remaining activity at 1.25 µM in test [2] (Well no.=1794, low concentration screen) stood at 94.8%; in test [2] (Well no.=7669, low concentration screen), 100%.
In the case of `COc1ccc2c(c1OCc1ccccc1)C[C@@H](C(=O)O)N(C(=O)C(c1ccccc1)c1ccccc1)C2` [Olodanrigan], in test [1] (Well no.=8122, high concentration screen), the remaining activity at 3.75 µM was 99.4%. Also, the remaining activity at 1.25 µM in test [2] (Well no.=8122, low concentration screen) is 100%.
On to `Cn1cnc2c(NCc3ccccc3)nc(NCCO)nc21` [Olomoucine - 6-(Benzylamino)-2-(2-hydroxyethylamino)-9-methylpurine], for which the remaining activity at 3.75 µM in test [1] (Well no.=2382, high concentration screen) stood at 102%. The remaining activity at 1.25 µM in test [2] (Well no.=2382, low concentration screen) worked out at 101%.
As for `CC[C@H](CO)Nc1nc(NCc2ccccc2O)c2ncn(C(C)C)c2n1` [Olomoucine II], the remaining activity at 3.75 µM in test [1] (Well no.=2523, high concentration screen) was determined as 102%. Besides, the remaining activity at 1.25 µM in test [2] (Well no.=2523, low concentration screen) was 99.8%.
On to `Cn1cnc2c(NCc3ccccc3)nc(NCCO)nc21` [Olomoucine], for which the remaining activity at 3.75 µM in test [1] (Well no.=800, high concentration screen) was 98.3%. The remaining activity at 1.25 µM in test [2] (Well no.=800, low concentration screen) is 96.5%.
With `CN(C)CC/C=C1/c2ccccc2COc2ccc(CC(=O)O)cc21` [Olopatadine (hydrochloride)], the remaining activity at 3.75 µM in test [1] (Well no.=8201, high concentration screen) is 102%. Also, in test [2] (Well no.=8201, low concentration screen), the remaining activity at 1.25 µM was determined as 104%.
As for `O=C(O)c1cc(/N=N/c2ccc(O)c(C(=O)O)c2)ccc1O` [Olsalazine (Disodium)], in test [1] (Well no.=7496, high concentration screen), the remaining activity at 3.75 µM came out at 92.2%. The remaining activity at 1.25 µM in test [2] (Well no.=7496, low concentration screen) amounted to 93.9%.
Turning to `O=C(O)c1cc(/N=N/c2ccc(O)c(C(=O)O)c2)ccc1O` [Olsalazine Sodium], in test [1] (Well no.=4688, high concentration screen), the remaining activity at 3.75 µM was determined as 97.9%. Moreover, the remaining activity at 1.25 µM in test [2] (Well no.=4688, low concentration screen) came out at 101%.
Consider `Cc1c(-c2cnccn2)ssc1=S` [Oltipraz], for which the remaining activity at 3.75 µM in test [1] (Well no.=2049, high concentration screen) turned out to be 112%. The remaining activity at 1.25 µM in test [2] (Well no.=2049, low concentration screen) came to 109%.
`CCCCCCCC/C=C\CCCCCCCC(=O)NCc1ccc(O)c(OC)c1` [Olvanil]: the remaining activity at 3.75 µM in test [1] (Well no.=5771, high concentration screen) amounted to 90%. Also, in test [2] (Well no.=5771, low concentration screen), the remaining activity at 1.25 µM came to 94.2%.
